The target of the assay is T1, Amine oxidase [flavin-containing] A (Homo sapiens, UniProt P21397).
T1 sequence (P21397 whole entry): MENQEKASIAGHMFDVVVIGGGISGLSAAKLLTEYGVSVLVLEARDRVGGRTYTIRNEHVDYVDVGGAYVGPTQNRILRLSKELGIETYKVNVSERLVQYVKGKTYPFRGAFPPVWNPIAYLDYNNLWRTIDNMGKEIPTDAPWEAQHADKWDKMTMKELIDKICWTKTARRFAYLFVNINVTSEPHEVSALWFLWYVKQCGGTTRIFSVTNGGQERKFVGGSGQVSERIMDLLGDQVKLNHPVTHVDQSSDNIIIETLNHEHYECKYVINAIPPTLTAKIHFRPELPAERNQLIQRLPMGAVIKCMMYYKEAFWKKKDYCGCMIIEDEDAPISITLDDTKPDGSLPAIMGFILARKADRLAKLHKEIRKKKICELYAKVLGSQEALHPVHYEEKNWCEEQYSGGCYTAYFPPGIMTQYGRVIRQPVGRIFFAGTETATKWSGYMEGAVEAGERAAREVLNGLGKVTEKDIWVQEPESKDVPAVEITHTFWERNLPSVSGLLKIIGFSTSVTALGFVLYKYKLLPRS
Put plainly: Inhibitory concentration against Monoamine oxidase A in human placenta.

In general, Ki refers to the equilibrium dissociation constant of an inhibitor or competing ligand from its target. Higher therefore signals a looser hold on the target. `Cc1cc2c(nn1)-c1cc(OCCCC(F)(F)F)ccc1C2=O`: the Ki was approximately 100 µM.

These data come from ChEMBL document CHEMBL1136363, “Rational approaches towards reversible inhibition of type B monoamine oxidase. Design and evaluation of a novel 5H-Indeno[1,2-c]pyridazin-5-one derivative” (Bioorg Med Chem Lett, 2003).
